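Exposure lasted 48 hours, with cells grown in 96-well plates and compounds tested at five concentrations. Abbreviation: GI50, concentration required for 50% inhibition of growth. TGI denotes the concentration required for complete inhibition of growth.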
Tests used:
Test in all cases: NCI anticancer screen, dose series, 48 h
IGROV1 ovarian = system: IGROV1 ovarian
T-47D breast = system: T-47D breast
CAKI-1 renal = system: CAKI-1 renal
BT-549 breast = system: BT-549 breast
CCRF-CEM leukemia = system: CCRF-CEM leukemia
DMS 114 small cell lung = system: DMS 114 small cell lung

SMILES	GI50 (IGROV1 ovarian) [µM]	TGI (IGROV1 ovarian) [µM]	GI50 (T-47D breast) [µM]	TGI (T-47D breast) [µM]	GI50 (CAKI-1 renal) [µM]	TGI (CAKI-1 renal) [µM]	GI50 (BT-549 breast) [µM]	TGI (BT-549 breast) [µM]	TGI (CCRF-CEM leukemia) [µM]	GI50 (CCRF-CEM leukemia) [µM]	GI50 (DMS 114 small cell lung) [µM]	TGI (DMS 114 small cell lung) [µM]
CCSc1nc(N)c(C#N)c(-c2ccc(OC)c(OC)c2)c1C#N	5.85	43.6	> 50	> 50	16.6	> 50	39.5	> 50				
Cn1c(=O)c2[nH]c(CCS)nc2n(C)c1=O		> 100		> 100		> 100		> 100	> 100			
COc1cc2c3c(n(CCCN=[N+]=[N-])c(=O)c2cc1OC)-c1ccc(NC(C)=O)cc1C3=O	47.3	> 50	> 50	> 50	8.39	> 50	> 50	> 50	> 50	> 50		
Cn1c(=S)c2[nH]c(SCc3cccnc3)nc2n(C)c1=O		> 100		> 100		> 100		> 100				
CCN1Cc2c(/C=C/c3ccccc3)nc3ccc(OC)cc3c2N(c2cccc(Cl)c2)C1	1.4	3.68	1.74	4.18	1.51	3.57	5.73	23	5.84	2.17		
COc1ccc(C#CC2=C(Br)C(=O)OC2)cc1	26.8	> 50			1.76	6.61	8.32	18.3	> 50	3.98		
CCC1C[N+]2=C(c3cc(OC)c(OC)cc3CC2)c2c1cc1n2CCc2cc(OC)c(OC)cc2-1 (configuration not stated)	5.62	53.6	0.746	5.51	20.6	65.7	2.69	13.5	42.4	3.68		
Cc1nc2sc(C(=O)Nc3cccc(Cl)c3C)c(N)c2cc1C(O)c1ccccc1 (configuration not stated)	0.0532	12.7	0.0396	57.6	0.0487	8.46	0.124	3	> 100	0.0392		
CN1CCC(n2cnc(-c3ccc(F)cc3)c2-c2ccnc(Nc3ccccc3)n2)CC1	3.04	> 13.1	6.85	> 25	1.79	> 15.3	10.4	> 25	> 25	12.1		
O=CCC(O)C(O)C(O)CO (configuration not stated)	> 100	> 100	> 100	> 100	> 100	> 100			> 100	> 100		
C=C(C)C1Cc2cc(C(C)=O)ccc2O1 (configuration not stated)		> 100		> 100		> 100		> 100	> 100			
O=C1c2ccccc2-c2c1c1ccc3ccccc3c1n2-c1ccccc1	29.7	> 100	12.7	41.5	22	40.9	44.7	> 100	> 100	> 100		
C=CC(=O)N1CCC(CNc2ncnc(N)c2-c2ccc(Oc3ccccc3)cc2)CC1	8.51	35.8			22.5	> 100	20.3	70.1	> 100	27.2		
CCCCCC/C=C\CCCCCCCCCc1cccc(OC)c1O		> 100		> 100		> 100		> 100	> 100			
Clc1ccc2c(NCCNc3nc(N4CCCCC4)nc4ccccc34)ccnc2c1	2.54	9.86	2.17	6.11			2.01	4.68	45.4	1.99		
COC(=O)[C@]12CC[C@@H](C)[C@H](C)[C@@H]1C1=CC[C@@H]3[C@@]4(C)C(C=O)=C[C@@](C)(COC(=O)c5ccco5)C4=CC[C@@]3(C)[C@]1(C)CC2	4.06	24.3	2.68	38.2	3.32	25.2	4.93	32.4	8.73	2.87		
CCCCc1n(Cc2ccc3ccccc3n2)cc[n+]1Cc1ccc2ccccc2c1	0.731	2.38	0.337	2.57	1.62	3.64	0.648	1.74	4.61	1.04		
COc1ccccc1N1CCN(CC(O)Cn2c(=O)c3c(OC)nc(C)cc3c(=O)n2-c2ccccc2)CC1 (configuration not stated)	41	> 100	> 100	> 100	32.7	> 100			> 100	> 100		
Fc1cccc(-c2nc(-c3c[nH]c4ncccc34)cs2)c1	8.15	> 100	2.34	> 100	> 100	> 100	44.8	> 100	> 100	> 100		
O=C(O)c1ccccc1C(=O)Nc1cc2c(cc1Br)-c1ccccc1C2=O		> 100		> 100		> 100		> 100	> 100			
COc1ccc2c3c1OC1C4(CCC5C(C2)N(CC2CC2)CCC351)OCCO4 (configuration not stated)		> 100		> 100		> 100		> 100	> 100			
CC(=O)OCCC/C(=C/c1cc2ccccc2c2ccccc12)[N+](=O)[O-]	1.06	2.81	0.384	1.87	1.21	2.51	1.56	3.26	> 25.3	2.52		
COc1ccc(/C=N/C2=NNC(C)(c3ccccc3O)N2C(Cc2c[nH]c3ccccc23)C(=O)O)cc1 (configuration not stated)	1.72	9.5	1.55	12.2			2.24	7.62	40.4	3.04		
CCN(CC)CCOc1ccccc1-n1c(C)ccc1-c1ccccc1	14.8	31.8	15.7	34.7	13.6	28			48.6	18.7		
CC1=CC[C@@H]2C(=O)C=CC=C[C@H]12.[C-]#[O+].[C-]#[O+].[C-]#[O+].[Fe]									> 100	> 100	> 100	> 100

Reference: PubChem BioAssay (NCI)
